Patent US20170233409A1, “TYPE IV SECRETION SYSTEM INHIBITORS” (priority 2016, published 2017)

Key:
H. pylori cag T4SS = type: cell-based; conditions: for T4SS Inhibiton [50 μM] (TLR9 Activation Assay): no bacterial pre-treatment, about 18 hours post-infection, HEK293-TLR9 cells
H. pylori = H. pylori viability (cellular ATP, CellTiter-Glo); type: cell-based; conditions: for H. pylori Toxicity: 150 μM, cellular ATP at 18 h of incubation; for viability of bacterial cells: concentrations up to 150 μM
cag T4SS [1] = type: cell-based, H. pylori; conditions: screening library, tested concentrations
cag T4SS [2] = experiment: NF-κB luciferase reporter activation by H. pylori in AGS cells; type: cell-based; conditions: for cag T4SS-dependent NF-κB activation: WT H. pylori, AGS NF-κB-luc cells
Protocol: Quantitation of NF-κB signaling activation. AGS cells stably transfected with an NF-κB-luciferase reporter (AGS NF-κB-luc) were cultured for 24 h and treated as described for the IL-8 induction studies. After 4 h co-culture with H. pylori, cell monolayers were washed with sterile PBS, and cell monolayer extracts were obtained by passive cell lysis. NF-κB-luciferase activity was measured by the Steady-Glo Luciferase Assay System (Promega) on a BioTek Synergy 4 plate reader, and plates were normalized to the DMSO vehicle control for each dilution series.

[3] = system: IncF group R1-16 conjugative T4SS; experiment: DNA conjugation efficiency, R1-16; conditions: 150 μM
Protocol: (§1) Analysis of DNA conjugation efficiency. Overnight cultures of donor E. coli MG1655 harboring pKM101, donor E. coli MS411 harboring R1-16, and recipient E. coli MG1655 (WM1652) were grown at 37° C. with shaking at 225 rpm in LB/antibiotic, were diluted in antibiotic-free LB containing DMSO or 150 μM compound, and incubated with shaking at 37° C. to reach an OD600 of ˜0.3. Donor and recipient cells were mixed at a ratio of 1:1 on 0.22 μM pore size mixed cellulose ester filters (Millipore) on antibiotic-free LB plates for 2 h at 37° C. Filters were aseptically removed from LB plates and incubated in 100 μl antibiotic-free LB to dislodge E. coli from membranes. Serial dilutions were plated on the appropriate antibiotic (or dual antibiotic) LB plates to determine the number of donor, recipient, and transconjugant cells. Colonies were enumerated after 24 h, and conjugation efficiencies were calculated by dividing the average number of transconjugates by the average number of donors (either pKM101 or R1-16 donor cells). Conjugation efficiency in the presence of compound is expressed as a percentage of conjugation efficiency in DMSO.

cag T4SS [4] = experiment: CagA translocation assay (tyrosine-phosphorylated CagA immunoblot); type: cell-based, H. pylori; conditions: 150 μM; compared to vehicle-only and GKP42-treated controls
TLR9 = target: T1, TLR9 (Homo sapiens, UniProt Q9NR96); experiment: TLR9 activation by CpG ODN (control); type: cell-based; conditions: 50 μM
T1 construct: host or cells: HEK293-TLR9 reporter cell line
T1 sequence (Q9NR96 26-1032): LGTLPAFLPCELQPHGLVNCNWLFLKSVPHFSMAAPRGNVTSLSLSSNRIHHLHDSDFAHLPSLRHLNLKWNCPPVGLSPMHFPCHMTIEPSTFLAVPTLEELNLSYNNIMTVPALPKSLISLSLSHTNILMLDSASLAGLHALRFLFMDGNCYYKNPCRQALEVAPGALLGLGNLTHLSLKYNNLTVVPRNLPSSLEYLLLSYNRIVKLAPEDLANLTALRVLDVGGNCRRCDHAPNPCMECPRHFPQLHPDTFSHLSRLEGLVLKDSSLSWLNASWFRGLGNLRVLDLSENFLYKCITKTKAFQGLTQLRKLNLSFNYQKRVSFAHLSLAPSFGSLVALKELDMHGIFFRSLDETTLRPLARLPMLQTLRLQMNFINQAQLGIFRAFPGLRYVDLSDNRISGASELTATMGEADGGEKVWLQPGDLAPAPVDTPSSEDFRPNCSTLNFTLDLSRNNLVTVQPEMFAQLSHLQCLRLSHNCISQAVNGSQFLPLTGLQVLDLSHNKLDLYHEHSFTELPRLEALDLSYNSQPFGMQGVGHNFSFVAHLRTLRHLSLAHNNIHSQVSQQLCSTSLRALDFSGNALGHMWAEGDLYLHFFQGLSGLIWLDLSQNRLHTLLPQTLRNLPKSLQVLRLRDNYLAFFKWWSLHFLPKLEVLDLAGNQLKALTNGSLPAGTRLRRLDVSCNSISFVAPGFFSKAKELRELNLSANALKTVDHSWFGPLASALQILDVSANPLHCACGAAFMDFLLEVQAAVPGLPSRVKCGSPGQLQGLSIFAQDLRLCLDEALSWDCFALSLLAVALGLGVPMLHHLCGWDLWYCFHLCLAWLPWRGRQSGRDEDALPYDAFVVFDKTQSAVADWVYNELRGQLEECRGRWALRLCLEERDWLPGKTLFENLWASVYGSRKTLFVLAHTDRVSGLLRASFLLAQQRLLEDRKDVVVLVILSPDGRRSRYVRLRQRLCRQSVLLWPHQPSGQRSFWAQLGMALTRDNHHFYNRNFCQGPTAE
Protocol: Inhibition of T4SS-dependent activation of human TLR9 signaling by H. pylori. H. pylori strain J166 was grown in broth culture overnight, and was subsequently pre-treated in the indicated compound at a final concentration of 50 μM, or in an equivalent volume of DMSO vehicle for 30 min prior to inoculating cultured HEK293-TLR9 reporter cell lines. Co-cultures were incubated in the presence of 50 μM compound or an equivalent volume of DMSO vehicle supplemented in the cell culture media for the duration of incubation (18 hours). TLR9 activation was assayed using a colorimetric assay (Invivogen), and TLR9 activation in the presence of type IV secretion system (T4SS) inhibitor compounds is expressed as a percentage of TLR9 activation by H. pylori in the presence of vehicle. As a control, TLR9 was activated with the immunostimulatory synthetic ligand CpG oligodeoxynucleotide (CpG ODN) in the presence of DMSO or inhibitor compound at 50 μM final concentration.

cag T4SS [5] = type: cell-based, H. pylori; conditions: for LogEC50, attenuation of cag T4SS-dependent IL-8 secretion / EC50: 4.5 h co-culture, normalized IL-8 secretion, non-linear regression; for cag T4SS-dependent IL-8 secretion: H. pylori-gastric epithelial cell co-culture, 25-150 μM; for EC50: read-out: EC50, attenuation of cag T4SS-dependent IL-8 secretion
[6] = system: IncN group conjugative T4SS encoded by pKM101; experiment: DNA conjugation efficiency, pKM101; conditions: 150 μM, compared to vehicle controls
Protocol: as §1

O=C(O)[C@@H]1CSc2c(C3CC3)c(Cc3ccc4ccccc4c3)cc(=O)n21 [KSK61, (R)-8-cyclopropyl-7-(naphthalen-2-ylmethyl)-5-oxo-2,3-dihydro-5H-thiazolo[3,2-a]pyridine-3-carboxylic acid]
T4SS Inhibiton [50 μM] (TLR9 Activation Assay) (H. pylori cag T4SS): ++

O=C(O)[C@@H]1CSc2c(-c3cccc(C(F)(F)F)c3)c(Cc3cccc(COc4cccc5ccccc45)c3)cc(=O)n21 [CB151]
H. pylori Toxicity (H. pylori): Toxic

O=C([O-])[C@@H]1CSc2c(C3CC3)c(Cc3cccc4ccccc34)c(CN3CCOCC3)c(=O)n21.[Li+] [NP048]
cag T4SS activity, structure-activity statements (cag T4SS [1]): abolished activity

O=C(O)c1c(Cc2ccccc2)sc2c(C3CC3)c(Cc3cccc4ccccc34)cc(=O)n12 [EC240, reference compound]
cag T4SS activity, structure-activity statements (cag T4SS [1]): not tolerated
H. pylori Toxicity (H. pylori): Toxic

COc1ccc(Cc2cc(=O)n3c(c2C2CC2)SC[C@@H]3C(=O)O)c2ccccc12 [(S)-JG202, (S)-8-cyclopropyl-7-((4-methoxynaphthalen-1-yl)methyl)-5-oxo-2,3-dihydro-5H-thiazolo[3,2-a]pyridine-3-carboxylic acid]
T4SS Inhibiton [50 μM] (TLR9 Activation Assay) (H. pylori cag T4SS): ++

COc1ccc2cc(Cc3cc(=O)n4c(c3C3CC3)SC[C@H]4C(=O)O)ccc2c1 [CB158, (R)-8-cyclopropyl-7-((6-methoxynaphthalen-2-yl)methyl)-5-oxo-2,3-dihydro-5H-thiazolo[3,2-a]pyridine-3-carboxylic acid]
T4SS Inhibiton [50 μM] (TLR9 Activation Assay) (H. pylori cag T4SS): +

O=C(O)[C@@H]1CSc2c(-c3cccc(C(F)(F)F)c3)c(Cc3cccc4ccccc34)cc(=O)n21 [FN075, reference compound]
cag T4SS activity, structure-activity statements (cag T4SS [1]): not tolerated
H. pylori Toxicity (H. pylori): Toxic

O=C(O)C1CSc2c(C3CC3)c(Cc3ccc(OC4O[C@H](CO)[C@@H](O)[C@@H](O)[C@@H]4O)c4ccccc34)cc(=O)n21 (stereo partly drawn) [PS402, 8-cyclopropyl-5-oxo-7-((4-(((3S,4R,5S,6R)-3,4,5-trihydroxy-6-(hydroxymethyl)tetrahydro-2H-pyran-2-yl)oxy)naphthalen-1-yl)methyl)-2,3-dihydro-5H-thiazolo[3,2-a]pyridine-3-carboxylic acid]
T4SS Inhibiton [50 μM] (TLR9 Activation Assay) (H. pylori cag T4SS): ++

O=C(O)[C@@H]1CSc2c(C3CC3)c3c(-c4cccc5ccccc45)n[nH]c3c(=O)n21 [MS218]
cag T4SS activity, structure-activity statements (cag T4SS [1]): inactive

O=C(O)[C@H]1CSc2c(C3CC3)c(Cc3cccc4ccccc34)cc(=O)n21 [JG14, (S)-8-cyclopropyl-7-(naphthalen-1-ylmethyl)-5-oxo-2,3-dihydro-5H-thiazolo[3,2-a]pyridine-3-carboxylic acid]
T4SS Inhibiton [50 μM] (TLR9 Activation Assay) (H. pylori cag T4SS): ++

O=C(O)[C@@H]1CSc2c(C3CC3)c(Cc3cccc4ccccc34)cc(=O)n21 [Compound C10, (3R)-8-cyclopropyl-7-(naphthalen-1-ylmethyl)-5-oxo-3,5-dihydro-2H-thiazolo[3,2-a]pyridine-3-carboxylic acid]
viability of bacterial cells (H. pylori): did not impact viability
cag T4SS-dependent NF-κB activation (cag T4SS [2]): significantly reduced
cag T4SS-mediated NF-κB activation by H. pylori strains of different phylogeographic origins (cag T4SS [2]; multiple H. pylori strains): inhibited
NF-κB activation by H. pylori ΔcagA mutant compared to WT strain (cag T4SS [2]; ΔcagA mutant): the same as those observed in the WT strain
DNA conjugation efficiency of the de-repressed R1-16 system [3]: reduced DNA transfer
amount of tyrosine-phosphorylated CagA in cultured gastric epithelial cells (cag T4SS [4]): significantly reduced
activation of TLR9 by CpG ODN (TLR9): not by CpG ODN
LogEC50, attenuation of cag T4SS-dependent IL-8 secretion (cag T4SS [5]): −1.19
cag T4SS-dependent IL-8 secretion (cag T4SS [5]): significantly reduced
EC50 (cag T4SS [5]): 64.5 µM
T4SS Inhibiton [50 μM] (TLR9 Activation Assay) (H. pylori cag T4SS): ++
T4SS-dependent activation of TLR9 by H. pylori (H. pylori cag T4SS; strain J166 pre-treated 30 min, 50 μM, 18 hours): inhibit
DNA conjugation efficiency of pKM101 [6]: reduced

O=C([O-])[C@@H]1CSc2c(-c3ccccc3)c(Cc3cccc4ccccc34)cc(=O)n21.[Li+] [PhenylC8]
cag T4SS activity, structure-activity statements (cag T4SS [1]): not tolerated

O=C(O)[C@@H]1CSc2c(C3CC3)c3cn(-c4ccccc4)cc3c(=O)n21 [GKP42, (3R)-9-cyclopropyl-5-oxo-7-phenyl-2,3,5,7-tetrahydropyrrolo[3,4-d][1,3]thiazolo[3,2-a]pyridine-3-carboxylic acid]
cag T4SS activity, structure-activity statements (cag T4SS [1]): inactive
viability of bacterial cells (H. pylori): did not impact viability
cag T4SS-dependent NF-κB activation (cag T4SS [2]): did not attenuate
LogEC50, attenuation of cag T4SS-dependent IL-8 secretion (cag T4SS [5]): −0.648
cag T4SS-dependent IL-8 secretion (cag T4SS [5]): minimal or no effects
EC50 (cag T4SS [5]): 225 µM

O=C(O)C1CSc2c(C3CC3)c(Cc3ccc(C(F)(F)F)c4ccccc34)cc(=O)n21 (stereo not shown) [KSK88, 8-cyclopropyl-5-oxo-7-((4-(trifluoromethyl)naphthalen-l1yl)methyl)-2,3-dihydro-5H-thiazolo[3,2-a]pyridine-3-carboxylic acid]
T4SS Inhibiton [50 μM] (TLR9 Activation Assay) (H. pylori cag T4SS): +++ (Very good T4SS inhibition (reproducibly inhibits T4SS activity by at least 50%, with representative results of about 80% inhibition at higher concentrations))

O=C(O)C1CSc2c(C3CC3)c(Cc3cccc4ccccc34)cc(=O)n21 (racemic) [rac-C10]
T4SS Inhibiton [50 μM] (TLR9 Activation Assay) (H. pylori cag T4SS): ++

Cc1cccc(-c2sc3c(-c4cn(C)c5ccccc45)c(COc4cccc5ccccc45)c(CN4CCOCC4)c(=O)n3c2C(=O)O)c1.Cl [EC341]
H. pylori Toxicity (H. pylori): Toxic

O=c1cc(Cc2cccc3ccccc23)c(C2CC2)c2n1CCS2 [EC013]
T4SS Inhibiton [50 μM] (TLR9 Activation Assay) (H. pylori cag T4SS): +++ (Very good T4SS inhibition (reproducibly inhibits T4SS activity by at least 50%, with representative results of about 80% inhibition at higher concentrations))

CCOc1ccc(Cc2cc(=O)n3c(c2C2CC2)SC[C@H]3C(=O)O)c2ccccc12 [(R)-JG131, (R)-8-cyclopropyl-7-((4-ethoxynaphthalen-1-yl)methyl)-5-oxo-2,3-dihydro-5H-thiazolo[3,2-a]pyridine-3-carboxylic acid]
T4SS Inhibiton [50 μM] (TLR9 Activation Assay) (H. pylori cag T4SS): +++ (Very good T4SS inhibition (reproducibly inhibits T4SS activity by at least 50%, with representative results of about 80% inhibition at higher concentrations))

O=C(O)C1CS(=O)(=O)c2c(C3CC3)c(Cc3cccc4ccccc34)cc(=O)n21 (stereo not shown) [TW460, 8-cyclopropyl-7-(naphthalen-1-ylmethyl)-5-oxo-2,3-dihydro-5H-thiazolo[3,2-a]pyridine-3-carboxylic acid 1,1-dioxide]
T4SS Inhibiton [50 μM] (TLR9 Activation Assay) (H. pylori cag T4SS): +

O=C(Nc1ccccc1)C1CSc2c(C3CC3)c(Cc3cccc4ccccc34)cc(=O)n21 (stereo not shown) [KSK165]
T4SS Inhibiton [50 μM] (TLR9 Activation Assay) (H. pylori cag T4SS): +++ (Very good T4SS inhibition (reproducibly inhibits T4SS activity by at least 50%, with representative results of about 80% inhibition at higher concentrations))

O=C(O)[C@@H]1CSc2c(C3CC3)c(Cc3cccc(COc4cccc5ccccc45)c3)cc(=O)n21 [CB160]
H. pylori Toxicity (H. pylori): Toxic
